Assay results reported in patent US11302422B2, “Methods and systems for identifying a drug mechanism of action using network dysregulation” (THE TRUSTEES OF COLUMBIA UNIVERSITY IN THE CITY OF NEW YORK, priority 2014, dated 2022).
“Also recorded” adds a separate entry of the source.

How the values were obtained:
[1] = system: OCI-LY3 cells; assay: Mitomycin C dose-response with JAK2 inhibitor TG101348 (CellTiter-Glo); type: cell-based, human; conditions: mitomycin C with TG101348 at 0.2, 0.4, 0.6 uM, 48 hrs
Procedure: The JAK2-selective inhibitor TG101348 and Mitomycin C was purchased from Selleckchem and Tocris Bioscience respectively and were and dissolved in DMSO. OCI-LY3 cells were treated with the indicated compounds in 96-well plates and there growth was determined using the CellTiter-Glo Luminescent Cell Viability Assay (Promega Corp). Typically, 30,000 OCI-Ly3 cells per well in 200 μL of growth medium were grown for 48 hrs in the presence or absence (DMSO alone) of the desired compounds, and then assayed with CellTiter Glo according to manufacturer's instructions.

[2] = molecular target: T1, GPX4 (Homo sapiens, UniProt P36969); assay: LC-MS based GPX4 assay (PC-OOH reduction) in lysates of treated cells; type: cell-based; conditions: lysates of altretamine treated U-2932 cells versus untreated lysate
T1 construct: endogenous in cells; host or cells: U-2932 cells (cleared whole-cell lysate)
T1 sequence (P36969 1-197): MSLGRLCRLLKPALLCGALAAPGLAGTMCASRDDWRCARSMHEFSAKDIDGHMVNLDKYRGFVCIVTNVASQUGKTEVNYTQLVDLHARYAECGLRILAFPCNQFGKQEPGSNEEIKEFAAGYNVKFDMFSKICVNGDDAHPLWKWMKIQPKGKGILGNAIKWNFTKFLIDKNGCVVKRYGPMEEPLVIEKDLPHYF
Procedure: GPX4 enzymatic activity assay was performed as follows. Briefly, 1×10^6 cells were re-suspended in the cell lysis buffer. Sonication was used to make cell lysates followed by centrifugation at 14,000 rpm for 10 minutes. Protein concentration of the cleared cell lysates was determined using a Bradford protein assay (Bio-Rad). Two hundred micrograms of cellular proteins was mixed with phosphatidyl choline hydroperoxide (PC—OOH), the GPX4 specific substrate, and reduced glutathione, a GPX4 cofactor. The mixture was incubated at 37° C. for 30 minutes followed by lipid extraction using a chloroform:methanol (2:1) solution. The lipid extract was evaporated using a rotary evaporator, and re-dissolved in 100% ethanol before injecting into LC-MS instrument for PC-OOH quantitation.

[3] = system: U-2932 cells; assay: Glutathione (GSH) level in treated cells; type: cell-based; conditions: 1 mM, 24 hrs, versus DMSO
Procedure: U-2932 cells were seeded in 10 cm dish (2×10^6/dish) and grown at 37° C. for 16 hrs. Cells were treated with vehicle (0.4% DMSO), 1 mM sulfasalazine (24 hr IC50) or 1 mM altretamine (double the 24 hr IC50), and incubated for 24 hrs. Cells were then harvested, pelleted, washed once with 400 μl ice-cold PBS containing 1 mM EDTA and sonicated. After the debris was pelleted and removed, both oxidized and reduced glutathione in 120 μL of sample was quantified in technical triplicate using QuantiChrome glutathione assay kit (BioAssay Sytems). The glutathione quantity was normalized to protein concentration measured with Bradford assay (Bio-Rad).

[4] = system: U-2932 cells; assay: Lipid ROS by C11-BODIPY staining and flow cytometry; type: cell-based; conditions: BODIPY-C11, versus DMSO
Procedure: U-2932 cells (2×10^5) were seeded in 6-well plates and incubated at 37° C. for 16 hrs. Cells were treated with test compounds for the indicated time, then harvested, pelleted and washed once with PBS. For lipid ROS detections, cells were re-suspended with Hanks Balanced Salt Solution (HBSS, Life Technologies) containing C11-BODIPY (581/591) (2 μM) (Life Technologies) and incubated for 10 minutes at 37° C. Cells were then pelleted, re-suspended in 500 μL HBSS, strained through […] cell strainer (BD Falcon), and analyzed using BD Accuri C6 flow cytometer (BD Biosciences). C11-BODIPY signal was measured using FL1 channel. Experiments were done in biological triplicates, and a representative result was shown.

[5] = system: U-2932 cells; assay: Cell viability, 24 hr IC50; type: cell-based; conditions: Homo sapiens, U2932
Procedure: Compounds were selected based on their activity in a primary screen of FDA-approved, late-stage experimental, and tool compounds. OCI-LY3, OCI-LY7 and U-2932 cells were seeded in white, tissue culture-treated 96-well plates at a density of 5×10^4 cells per well in 100 μL total volume using the Janus automated liquid handling system (Perkin Elmer Inc.). After 12 hrs of incubation at 37° C. the plates were allowed to cool to room temperature prior to compound addition via the Janus. Compounds were transferred as 1 μL of DMSO stock solutions into the assay plates (plate based triplication), which were subsequently placed on an orbital shaker for 5 minutes and then placed back in the incubator. […] Plates were shaken 5 minutes on an orbital shaker before data acquisition in an Envision (PerkinElmer Inc.) (0.5 second read time, enhanced luminescence). IC20 values were determined using IDBS Activity Base utilizing a four parameter fit model.
U-2932 cells were seeded in 10 cm dish (2×10^6/dish) and grown at 37° C. for 16 hrs. […] After the debris was pelleted and removed, both oxidized and reduced glutathione in 120 μL of sample was quantified in technical triplicate using QuantiChrome glutathione assay kit (BioAssay Sytems). The glutathione quantity was normalized to protein concentration measured with Bradford assay (Bio-Rad).

[6] = system: U-2-OS cells; assay: Vincristine dose-response (alamar Blue growth inhibition) after siRNA-mediated gene silencing; type: cell-based
Procedure: Small interfering RNA (siRNA) targeting each specified gene and siControl SMARTpools were obtained from Dharmacon Technologies (see Table 3). Reverse transfection was performed by preparing a solution of 1 mL of Opti-MEM (Invitrogen), […], of Lipofectamine-RNAiMAX reagent (Invitrogen) and 1.25 μL of 10 μM RNAi solution (final working concentration is […]), and incubating the mixture (1 mL/well) in a 6-well dish for 20 minutes at 37° C. U-2-OS cells were detached from culture flask, and re-suspended in 2× serum-containing media at a density of 4×10^5 cells/mL. One mL of cell suspension was transferred to each well containing the transfection mixture, and the 6-well plate was returned to culture incubator. After 48 hrs, cells were detached and reverse transfected again using the same procedures. After 48 hrs, cells were trypsinized and reseeded into 384-well format to determine sensitivity against vincristine. […] Plates were incubated further for 16 hrs to allow reduction of alamar Blue, which results in the generation of red fluorescence. The fluorescence intensity was determined using a Victor 3 plate reader (Perkin Elmer, Inc.), and used to calculated percent growth inhibition.

[7] = system: U-2-OS cells; assay: Microtubule network visualised with anti-tubulin antibody; type: cell-based; conditions: vincristine 4 nM for 24 hrs, compared to DMSO / non-specific siRNA
Procedure: Cells were grown on coverslips to ˜50% confluency and treated with compounds for 24 hrs. Cells were fixed with 3.7% formaldehyde solution in PBS for 15-30 minutes followed by washing with PBS 5 times. Cell membrane was permeabilized with 0.2% Triton-X in PBS for 10 minutes and rinsed once with TBS (10 mM Tris [pH 7.5], 150 mM NaCl). The permeabilized sample was blocked with 10% goat serum in TTBS (0.1% Tween-20 in TBS) for 30-60 minutes and washed once with TTBS. The microtubule network was probed with anti-tubulin antibody (Santa Cruz cat #sc-32293) in 1% goat serum in TTBS for 30-60 minutes at room temperature followed by washing in TTBS for 10 minutes. Alexa Fluor anti-mouse antibody (Invitrogen, cat #A-11005) was used as the secondary antibody to visualize the microtubule network using the 60× lens of a confocal microscope.

SMILES: Cc1cnc(Nc2ccc(OCCN3CCCC3)cc2)nc1Nc1cccc(S(=O)(=O)NC(C)(C)C)c1 [TG101348]
- effect of JAK2 inhibition on mitomycin C activity (percent cell inhibition) [1]: significant, dose-dependent antagonism

SMILES: CN(C)c1nc(N(C)C)nc(N(C)C)n1 [altretamine]
- GPX4 activity (residual PC-OOH signal) [2]: decreases the activity of GPX4; also recorded: displayed a significant [PC—OOH+H^+] signal
- GSH levels [3]: indistinguishable from the control; also recorded: did not deplete GSH levels
- lipid-ROS levels [4]: significantly increases the levels of lipid-ROS; also recorded: induce lipid-ROS accumulation

SMILES: CO[C@@]12[C@H](COC(N)=O)C3=C(C(=O)C(C)=C(N)C3=O)N1C[C@@H]1N[C@@H]12 [mitomycin C]
- effect of JAK2 inhibition on mitomycin C activity (percent cell inhibition) [1]: reduction in the sensitivity of the cells; also recorded: significant, dose-dependent antagonism

SMILES: O=C(O)c1cc(/N=N/c2ccc(S(=O)(=O)Nc3ccccn3)cc2)ccc1O [sulfasalazine]
- IC50 [5]: 1000 µM
- GSH levels [3]: reduces the levels of active GSH compared to control
- GSH levels ([3]; listed as Sulfasalazine): depletion of GSH levels
- lipid-ROS levels [4]: significantly increases the levels of lipid-ROS; also recorded: induce lipid-ROS accumulation

SMILES: CC[C@]1(O)C[C@H]2CN(CCc3c([nH]c4ccccc34)[C@@](C(=O)OC)(c3cc4c(cc3OC)N(C=O)[C@H]3[C@@](O)(C(=O)OC)[C@H](OC(C)=O)[C@]5(CC)C=CCN6CC[C@]43[C@@H]65)C2)C1 [vincristine]
- change of vincristine sensitivity after CCNB1 silencing ([6]; siRNA targeting CCNB1, 48 hrs vincristine): reduces the cell sensitivity; also recorded: had the opposite effect
- change of vincristine sensitivity after RPS3A silencing ([6]; siRNA targeting RPS3A, 48 hrs vincristine): reduces the cell sensitivity; also recorded: had the opposite effect
- change of vincristine sensitivity after VHL silencing ([6]; siRNA targeting VHL, 48 hrs vincristine): increases the sensitivity two-folds; also recorded: more than two-fold
- effect on microtubule network [7]: significantly altered microtubule network
